Several values for one entry are separate records, joined by “and”; a condition that tells them apart may be missing. Equal entries are not always repeated.
System: CMV
Assay: Study HDP-CDV-201: prevention or control of CMV infection in R+ HSCT recipients (efficacy)
Type: in vivo, human (adult allogeneic HSCT recipients)
Settings: for Rate of CMV Disease or End of Treatment CMV Infection (≧200 copies/ml): missing=infection; for Rate of CMV DNAemia ≧1000 copies/mL during the treatment period: post hoc; for Developed CMV DNAemia (≧100 copies/mL) during the treatment period: plasma CMV DNA negative at baseline
Procedure: The clinical study of the current invention (HDP-CDV-201) was a 9-11 week randomized, placebo-controlled, double-blind, dose-escalation study (40 mg weekly [QW], 100 mg QW, 200 mg QW, 200 mg twice-weekly [BIW], and 100 mg BIW) of HDP-CDV for the prevention of CMV infection post-HCT. Treatment was initiated at the time of engraftment and continued until Week 13 post-HCT. HDP-CDV, at various doses, was active and well tolerated in the prevention CMV infection or disease.
Clinical Studies of HDP-CDV were performed and described in detail in the following Examples. For example, HDP-CDV-201 is a placebo-controlled, dose-escalating trial in HSCT CMV (R+) recipients, evaluating the ability of HDP-CDV to prevent or control CMV infection was carried out. Five cohorts were established in which participants or subjects received either placebo or the HDP-CDV orally, in doses ranging from 40 mg weekly (QW) to 200 mg twice weekly (BIW). Subjects who were post-HSCT were enrolled at the time of engraftment and randomized to HDP-CDV or placebo (3 to 1 ratio) and received blinded therapy until approximately 100 day post-transplantation. HDP-CDV doses were 40 mg QW, 100 mg QW, 200 mg QW, 200 mg BIW and 100 mg BIW. Escalation to the next dose was decided by the data monitoring committee after review of the safety data from the previous Cohort. Subjects who developed CMV disease or CMV infection requiring pre-emptive therapy with local standard of care were discontinued from blinded therapy and followed for 4 weeks. Subjects who completed treatment with blinded therapy were followed for 8 weeks post-therapy.
The primary endpoint was defined as the incidence of CMV disease at any time during treatment or CMV DNAemia≧200 copies/mL at the end of treatment. All subjects who received at least one dose of drug/placebo and had at least one efficacy evaluation post baseline were included in the primary analysis, regardless of their CMV DNAemia status (negative or positive) at baseline (mITT population). Results for the pooled HDP-CDV Cohorts and for each Cohort separately were analyzed versus that for pooled placebo.
The primary efficacy measure for this study was treatment failure, defined as the occurrence of CMV infection, defined as CMV DNAemia>200 copies/mL at the End of Treatment or diagnosis of CMV disease at any time during the treatment period. For the analysis, the following definitions apply:
For subjects who completed the treatment phase of the study, the End of Treatment was defined as the latest assessment from date of the last dose of study drug and up to 7 days for QW dosing, or the date of the last dose of study drug and up to 4 days for BIW dosing. For subjects who discontinued during the treatment phase of the study, the End of Treatment was defined as the date of the last dose of study drug.
The time to event was defined as the period between FDD and date of first occurrence of the event of interest (inclusive). The events included onset of CMV DNAemia, onset of CMV disease, and discontinuation because of excluded anti-CMV medications. Time to event/onset was derived as (the event/onset date—FDD)+1.
As detailed in the Statistical Analysis Plan, a modified CMV stratum was defined prior to conducting the statistical analysis based upon polymerase chain reaction (PCR) results from the central laboratory. If any positive CMV DNA value in plasma was collected before the first dose of study drug (including Screening, Pre-dose, (combined Screening/Pre-dose), CMV for stratification, and FDD), then the subject was placed into the modified CMV positive (≧100 copies/mL) stratum, otherwise the subject was in the modified CMV negative stratum. […]

[1] = 100 mg BIW, modified CMV negative stratum
[2] = 100 mg BIW, whole study period, CMV DNA negative at baseline
[3] = 100 mg QW, CMV modified strata: negative
[4] = 100 mg QW, CMV modified strata: positive
[5] = 100 mg QW, active treatment period
[6] = 100 mg QW, modified CMV negative stratum

SMILES: CCCCCCCCCCCCCCCCOCCCOP(=O)(O)COC(CO)Cn1ccc(N)nc1=O (stereo not drawn) [HDP-CDV]
- Incidence of CMV disease or initiation of anti-CMV preemptive therapy (100 mg BIW, mITT): 14%
- Subjects Receiving Antiviral Therapy and/or had CMV disease (100 mg BIW, mITT): 7 (14.0%) subjects (%)
- Subjects without a CMV event (100 mg BIW, mITT): 43 (86.0%) subjects (%)
- Time to Antiviral Therapy, Median (100 mg BIW, mITT): 23.0 days
- Rate of CMV Disease or End of Treatment CMV Infection (≧200 copies/ml) (100 mg BIW, mITT): 10%
- Rate of CMV DNAemia ≧1000 copies/mL during the treatment period (100 mg BIW, mITT): 8%
- Time to Antiviral Therapy, Mean (100 mg BIW, mITT, censored values not included): 23.1 days
- % CMV Event Rate: Incidence of CMV DNAemia >100 copies/mL During Treatment (Fisher analysis, ref 14.3.3.2.1) [1]: 9 (22.5%) subjects (%)
- % CMV Event Rate: Incidence of CMV DNAemia ≧1,000 copies/mL at any time during treatment [1]: 0 subjects (%)
- % CMV Event Rate: onset of CMV DNAemia During Whole Study [1]: 14 (33.3%) subjects (%)
- Combined CMV event rate (CMV disease, viremia requiring treatment, viremia ≧1000 copies/mL) [1]: 12.2%
- Subjects Who Had CMV-related Event (CMV disease, CMV DNAemia ≧1,000 c/mL or initiation of anti-CMV treatment) [1]: 5 (12.2%) subjects (%)
- Subjects without a CMV-related event [1]: 36 (87.8%) subjects (%)
- Developed CMV DNAemia (≧100 copies/mL) during the treatment period (100 mg BIW, mITT): 10 (23.8.%) N(%) and 10 (23.8%) N(%)
- Time to CMV DNAemia (≧100 copies/mL), Median (100 mg BIW, treatment period, CMV DNA negative at baseline): 20.0 days
- Time to CMV DNAemia (≧100 copies/mL), Mean (100 mg BIW, treatment period, CMV DNA negative at baseline, censored values not included): 28.8 days
- Number of Subjects who had CMV DNAemia (≧100 copies/mL) by the end of study [2]: 14
- Time to CMV DNAemia (≧100 copies/mL), Mean [2]: 42.8 days
- Time to CMV DNAemia (≧100 copies/mL), Median [2]: 32.5 days
- Incidence of composite endpoint (initiation of anti-CMV therapy or CMV disease or CMV DNAemia >1,000 copies/mL) (100 mg QW): 21.7%
- Difference (HDP-CDV minus placebo) in infection rate [3]: −16.7%
- Difference (HDP-CDV minus placebo) in rate of CMV DNAemia ≧1,000 copies/ml [3]: −23.2%
- Rate of CMV DNAemia ≧1,000 copies/ml during the treatment period [3]: 8.7%
- Rate of CMV Disease or End of Treatment CMV Infection [3]: 13.0%
- Difference (HDP-CDV minus placebo) in rate of CMV DNAemia ≧1,000 copies/mL [4]: 16.7%
- Rate of CMV DNAemia ≧1,000 copies/mL during the treatment period [4]: 100.0%
- Rate of CMV Disease or End of Treatment CMV Infection (100 mg QW, aGVHD randomization strata: negative): 24.0%
- Difference (HDP-CDV minus placebo) in infection rate (100 mg QW, aGVHD strata: negative): −8.1%
- Discontinuation: Emergence of CMV disease [5]: 3 Subject n (%) and 3 (11.1%) Subject n (%)
- Discontinuation: Initiation of alternate CMV therapy [5]: 4 (14.8%) Subject n (%)
- Difference (HDP-CDV minus placebo) in rate of CMV DNAemia ≧1000 copies/mL (100 mg QW, mITT): −20.2%
- Difference (HDP-CDV minus placebo) in rate of CMV disease or end of treatment CMV infection (100 mg QW, mITT): −15.1%
- Subjects Receiving Antiviral Therapy and/or had CMV disease (100 mg QW, mITT): 7 (25.9%) subjects (%)
- Subjects without a CMV event (100 mg QW, mITT): 20 (74.1%) subjects (%)
- Time to Antiviral Therapy, Median (100 mg QW, mITT): 41.0 days
- Rate of CMV Disease or End of Treatment CMV Infection (≧200 copies/ml) (100 mg QW, mITT): 22% and 22.2%
- Rate of CMV DNAemia ≧1000 copies/mL during the treatment period (100 mg QW, mITT): 22.2%
- Time to Antiviral Therapy, Mean (100 mg QW, mITT, censored values not included): 41.9 days
- % CMV Event Rate: Incidence of CMV DNAemia >100 copies/mL During Treatment (Fisher analysis, ref 14.3.3.2.1) [6]: 5 (21.7%) subjects (%)
- % CMV Event Rate: Incidence of CMV DNAemia ≧1,000 copies/mL at any time during treatment [6]: 2 (8.7%) subjects (%)
- % CMV Event Rate: onset of CMV DNAemia During Whole Study [6]: 8 (34.8%) subjects (%)
- Subjects Who Had CMV-related Event (CMV disease, CMV DNAemia ≧1,000 c/mL or initiation of anti-CMV treatment) [6]: 5 (21.7%) subjects (%)
- Subjects without a CMV-related event [6]: 18 (78.3%) subjects (%)
- Developed CMV DNAemia (≧100 copies/mL) during the treatment period (100 mg QW, mITT): 5 (21.7%) N(%)
- Time to CMV DNAemia (≧100 copies/mL), Median (100 mg QW, treatment period, CMV DNA negative at baseline): 30.0 days

From patent publication US20140303092A1 (CHIMERIX, INC., priority 2011, published 2014)
